How the values were obtained:
Bradykinin receptor = target: T1, Bradykinin receptor (Cavia porcellus, UniProt O70526); experiment: 3H-Bradykinin receptor binding (crude guinea pig ileum membrane); set-up: species or system guinea pigs; details: 3H-Bradykinin 0.06 nM, room temperature, 60 minutes, read-out: Inhibition of ^3 H-Bradykinin binding: IC50
T1 construct: The ileum was removed and homogenized in buffer; from tissue; host or cells: guinea pig (male Hartley strain) ileum, crude membrane suspension
T1 sequence (O70526 1-372): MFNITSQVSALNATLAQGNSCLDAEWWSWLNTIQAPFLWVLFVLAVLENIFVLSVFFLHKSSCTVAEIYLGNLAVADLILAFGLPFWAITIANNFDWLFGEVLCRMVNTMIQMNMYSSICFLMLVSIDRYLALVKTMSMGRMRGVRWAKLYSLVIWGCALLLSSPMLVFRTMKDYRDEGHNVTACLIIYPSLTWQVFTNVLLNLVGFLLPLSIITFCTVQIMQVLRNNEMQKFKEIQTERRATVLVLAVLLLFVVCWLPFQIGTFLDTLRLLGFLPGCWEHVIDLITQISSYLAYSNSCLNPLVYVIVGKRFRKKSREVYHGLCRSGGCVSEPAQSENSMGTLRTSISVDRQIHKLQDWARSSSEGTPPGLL
Method: (I) ^3 H-Bradykinin receptor binding
(a) Crude ileum membrane preparation
Male Hartly strain guinea pigs were sacrificed by decapitation. The ileum was removed and homogenized in buffer (50 mM 2-[[tris(hydroxymethyl)methyl]amino]-1-ethanesulfonic acid (TES), 1 mM 1,10-phenanthroline pH 6.8). The homogenate was centrifuged (1000×g,20 minutes) to remove tissue clumps and the supernatant was centrifuges (100,000×g, 60 minutes) to yield a pellet. The pellet was resuspended in buffer (50 mM TES, 1 mM 1,10-phenanthroline, 140 mg/l bacitracin, 1 mM dithiothreiol, 0.1% bovine serum albumin pH 6.8) and homogenized with a glass-teflon homogenizer to yield suspension which was referred to as crude membrane suspension. The obtained membrane suspension was stored at -80° C. until use.
(b) ^3 H-Bradykinin binding to the membrane
The frozen crude membrane suspension was thawed. In binding assays, ^3 H-Bradykinin (0.06 nM) and drug were incubated with 50 μl of the membrane suspension at room temperature for 60 minutes in a final volume of 250 μ1. Separation of receptor-bound from free ^3 H-Bradykinin is achieved by immediate filtration under vacuum and washed three times with 5 ml of ice-cold buffer (50 mM Tris-HCl pH 7.5). Non-specific binding was defined as binding in the presence of 0.1 μM Bradykinin. The radioactivity retained on rinsed filters was determined by a liquid-scintillation counter.

WI-38 PGE2 production = experiment: Prostaglandin E2 (PGE2) production in human fibroblasts (WI-38); assay type: cell-based; details: WI-38, 0.5 h, concentration: 1 × 10^-6 M, 30 minutes at 37° C., PGE2 by EIA, read-out: WI-38 PGE2 production increase ratio
Method: (II) Prostaglandin E2 (PGE2) production in human fibroblasts
The assay of PGE2 production was modified from the procedure described in The Journal of Biological Chemistry, 257, 8630-8633 (1982).
Human fibroblasts (WI-38, ATCC CCL75) were grown in Eagle's Minimum Essential Medium [E-MEM: ICN Biomedical Inc., Cat. No. 10-101-24 (47.6 g) with sodium bicarbonate (11.0 g), penicillin G potassium salt (0.5 g), streptomycin sulfate (0.5 g) in water (5000 ml) and 10% fetal bovine serum]. The cells were placed into the quiescent state after confluence was reached.
(b) Measurements of PGE2 production
WI-38 cells were seeded in 24-well plates at a density of 1×10^5 cells/well with 0.5 ml of E-MEM including 1% fetal bovine serum and were cultured for 1 day. The mediums in 24-well plates in which WI-38 cells were cultured were removed by aspiration and Hanks-bovine serum albumin buffer [Hanks-BSA Buffer: Hanks' balanced salts (4.9 g), sodium bicarbonate (0.1 g) and bovine serum albumin (protease free) (0.5 g)] was added thereto. […] Supernatant was collected, and PGE2 level included therein was measured by PGE2 EIA Kit (Cayman Chemical Co.).

| SMILES | IC50 (Bradykinin receptor) [nM] | fold induction at 1 µM (WI-38 PGE2 production) |
| --- | --- | --- |
| CNC(=O)c1ccc(C=CC(=O)NCC(=O)N(C)c2ccc(Cl)c(COc3cccc4c(OCc5ccccn5)cc(C)nc34)c2Cl)cc1 [Example 1-(2), 8-[2,6-dichloro-3-[N-[4-(methylcarbamoyl)cinnamoylglycyl]-N-methylamino]benzyloxy]-2-methyl-4-(2-pyridylmethoxy)quinoline] | 0.99 | 7.95 |
| COc1nc2c(OCc3c(Cl)ccc(N(C)C(=O)CNC(=O)/C=C/c4ccc(NC(C)=O)nc4)c3Cl)cccc2n1Cc1ccccn1 [Example 9, 4-[3-[N-[(E)-3-(6-acetamidopyridin-3-yl)acryloylglycyl]-N-methylamino]-2,6-dichlorobenzyloxy]-2-methoxy-1-(2-pyridylmethyl)-1H-benzimidazole] | 6.3 | 10.8 |
